Measured values reported in BindingDB's records for doi:10.1016/j.bmcl.2009.04.040 (The University of Texas Southwestern Medical Center At …, 2009).

Target: Proto-oncogene Wnt-3 (Homo sapiens, UniProt P56703)
Assay: Inhibition of Wnt3 expressed in mouse L-cells assessed as inhibition of Wnt/catanin signaling pathway by luciferase reporter gene assay

Proto-oncogene Wnt-3, sequence (P56703 whole entry): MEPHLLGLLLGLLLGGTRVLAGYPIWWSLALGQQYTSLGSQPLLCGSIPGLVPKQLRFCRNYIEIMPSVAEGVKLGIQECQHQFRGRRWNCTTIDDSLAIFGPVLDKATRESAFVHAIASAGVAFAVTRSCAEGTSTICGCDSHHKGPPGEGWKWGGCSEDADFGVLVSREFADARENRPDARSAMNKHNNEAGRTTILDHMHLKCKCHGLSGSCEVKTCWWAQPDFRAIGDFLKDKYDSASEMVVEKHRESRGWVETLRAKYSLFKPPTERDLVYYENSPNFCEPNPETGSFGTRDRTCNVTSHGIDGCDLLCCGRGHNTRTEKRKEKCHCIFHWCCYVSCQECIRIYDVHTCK

EC50 [µM]	Compound
> 25	O=C(N[C@H]1CCCC[C@@H]1O)c1ccc(-n2c(O)c3c(c2O)[C@H]2C=C[C@@H]3C2)cc1 [trans-4-((1R,2S,6R,7S)-3,5-Dioxo-4-aza-tricyclo[5.2.1.0*2,6*]dec-8-en-4-yl)-N-((2-hydroxy-cyclohexyl)-benzamide]
> 25	CN(C(=O)c1ccc(-n2c(O)c3c(c2O)[C@H]2C=C[C@@H]3C2)cc1)c1cccc2cccnc12 [4-((1R,2S,6R,7S)-3,5-Dioxo-4-aza-tricyclo[5.2.1.0*2,6*]dec-8-en-4-yl)-N-methyl-N-quinolin-8-yl-benzamide]
> 25	O=C(NCc1cccnc1)c1ccc(-n2c(O)c3c(c2O)[C@H]2C=C[C@@H]3C2)cc1 [4-((1R,2S,6R,7S)-3,5-Dioxo-4-aza-tricyclo[5.2.1.0*2,6*]dec-8-en-4-yl)-N-pyridin-3-ylmethyl-benzamide]
1	Cc1ccnc2c(NC(=O)[C@H]3CC[C@H](N4C(=O)[C@@H]5[C@H](C4=O)[C@@H]4C=C[C@H]5C4)CC3)cccc12 [4-((1R,2S,6R,7S)-3,5-Dioxo-4-aza-tricyclo[5.2.1.0*2,6*]dec-8-en-4-yl)-cyclohexanecarboxylic acid(4-methyl-quinolin-8-yl)-amide]
> 25	O=C(Nc1c(F)cccc1F)c1ccc(-n2c(O)c3c(c2O)[C@H]2C=C[C@@H]3C2)cc1 [N-(2,6-Difluoro-phenyl)-4-((1R,2S,6R,7S)-dioxo-4-aza-tricyclo[5.2.1.0*2,6*]dec-8-en-4-yl)-benzamide]
2	CO[C@@H]1CCCC[C@H]1NC(=O)c1ccc(-n2c(O)c3c(c2O)[C@H]2C=C[C@@H]3C2)cc1 [trans-4-((1R,2S,6R,7S)-3,5-Dioxo-4-aza-tricyclo[5.2.1.0*2,6*]dec-8-en-4-yl)-N-(2-methoxy-cyclohexyl)-benzamide]
1	Cc1ccc2cccnc2c1NC(=O)[C@H]1CC[C@H](N2C(=O)[C@@H]3[C@H](C2=O)[C@@H]2C=C[C@H]3C2)CC1 [4-((1R,2S,6R,7S)-3,5-Dioxo-4-aza-tricyclo[5.2.1.0*2,6*]dec-8-en-4-yl)-cyclohexanecarboxylic acid(7-methyl-quinolin-8-yl)-amide]
0.8	Cc1ccc2cccnc2c1NC(=O)c1ccc(-n2c(O)c3c(c2O)[C@H]2C=C[C@@H]3C2)cc1 [4-((1R,2S,6R,7S)-3,5-Dioxo-4-aza-tricyclo[5.2.1.0*2,6*]dec-8-en-4-yl)-N-(7-methyl-quinolin-8-yl)-benzamide]
10	O=C(Nc1cccc2cccnc12)N1CCC(N2C(=O)[C@@H]3[C@H](C2=O)[C@@H]2C=C[C@H]3C2)CC1 [4-((1R,2S,6R,7S)-3,5-Dioxo-4-aza-tricyclo[5.2.1.0*2,6*]dec-8-en-4-yl)-piperidine-1-carboxylic acid quinolin-8-ylamide]
5	O=C(Nc1ccc(Cl)c(Cl)c1)c1ccc(-n2c(O)c3c(c2O)[C@H]2C=C[C@@H]3C2)cc1 [N-(3,4-Dichloro-phenyl)-4-((1R,2S,6R,7S)-dioxo-4-aza-tricyclo[5.2.1.0*2,6*]dec-8-en-4-yl)-benzamide]
10	O=C(NCc1ccncc1)c1ccc(-n2c(O)c3c(c2O)[C@H]2C=C[C@@H]3C2)cc1 [4-((1R,2S,6R,7S)-3,5-Dioxo-4-aza-tricyclo[5.2.1.0*2,6*]dec-8-en-4-yl)-N-pyridin-4-ylmethyl-benzamide]
10	O=C(Nc1ccc(Br)c(Br)c1)c1ccc(-n2c(O)c3c(c2O)[C@H]2C=C[C@@H]3C2)cc1 [N-(3,4-Dibromo-phenyl)-4-((1R,2S,6R,7S)-dioxo-4-aza-tricyclo[5.2.1.0*2,6*]dec-8-en-4-yl)-benzamide]
> 25	O=C(Nc1ccccc1F)c1ccc(-n2c(O)c3c(c2O)[C@H]2C=C[C@@H]3C2)cc1 [4-((1R,2S,6R,7S)-3,5-Dioxo-4-aza-tricyclo[5.2.1.0*2,6*]dec-8-en-4-yl)-N-(2-fluoro-phenyl)-benzamide]
> 25	Cc1cc(C(=O)Nc2cccc3cccnc23)ccc1-n1c(O)c2c(c1O)[C@H]1C=C[C@@H]2C1 [4-((1R,2S,6R,7S)-3,5-Dioxo-4-aza-tricyclo[5.2.1.0*2,6*]dec-8-en-4-yl)-3-methyl-N-quinolin-8-yl-benzamide]
> 25	O=C(Nc1cccc(Cl)c1)c1ccc(-n2c(O)c3c(c2O)[C@H]2C=C[C@@H]3C2)cc1 [N-(3-Chloro-phenyl)-4-((1R,2S,6R,7S)-3,5-dioxo-4-aza-tricyclo[5.2.1.0*2,6*]dec-8-en-4-yl)-benzamide]
20	O=C(NCc1ccccc1)c1ccc(-n2c(O)c3c(c2O)[C@H]2C=C[C@@H]3C2)cc1 [N-Benzyl-4-((1R,2S,6R,7S)-3,5-dioxo-4-aza-tricyclo[5.2.1.0*2,6*]dec-8-en-4-yl)-benzamide]
> 25	O=C(NCc1ccccn1)c1ccc(-n2c(O)c3c(c2O)[C@H]2C=C[C@@H]3C2)cc1 [4-((1R,2S,6R,7S)-3,5-Dioxo-4-aza-tricyclo[5.2.1.0*2,6*]dec-8-en-4-yl)-N-pyridin-2-ylmethyl-benzamide]
9	O=C(Nc1cccc(Br)c1)c1ccc(-n2c(O)c3c(c2O)[C@H]2C=C[C@@H]3C2)cc1 [N-(3-Bromo-phenyl)-4-((1R,2S,6R,7S)-3,5-dioxo-4-aza-tricyclo[5.2.1.0*2,6*]dec-8-en-4-yl)-benzamide]

EC50 [µM]	Compound
1	O=C(Nc1ccc(Br)cc1)c1ccc(-n2c(O)c3c(c2O)[C@H]2C=C[C@@H]3C2)cc1 [N-(4-Bromo-phenyl)-4-((1R,2S,6R,7S)-3,5-dioxo-4-aza-tricyclo[5.2.1.0*2,6*]dec-8-en-4-yl)-benzamide]
10	Cc1ccc2cccnc2c1NC(=O)[C@H]1CC[C@H](CN2C(=O)[C@@H]3[C@H](C2=O)[C@@H]2C=C[C@H]3C2)CC1 [4-((1R,2S,6R,7S)-3,5-Dioxo-4-aza-tricyclo[5.2.1.0*2,6*]dec-8-en-4-ylmethyl)-cyclohexanecarboxylic acid(7-methyl-quinolin-8-yl)-amide]
2	Cc1cc(-n2c(O)c3c(c2O)[C@H]2C=C[C@@H]3C2)ccc1C(=O)Nc1cccc2cccnc12 [4-((1R,2S,6R,7S)-3,5-Dioxo-4-aza-tricyclo[5.2.1.0*2,6*]dec-8-en-4-yl)-2-methyl-N-quinolin-8-yl-benzamide]
> 25	O=C(NC1CCCCC1)c1ccc(-n2c(O)c3c(c2O)[C@H]2C=C[C@@H]3C2)cc1 [N-Cyclohexyl-4-((1R,2S,6R,7S)-3,5-dioxo-4-aza-tricyclo[5.2.1.0*2,6*]dec-8-en-4-yl)-benzamide]
> 25	O=C(Nc1ccc(Br)cc1Br)c1ccc(-n2c(O)c3c(c2O)[C@H]2C=C[C@@H]3C2)cc1 [N-(2,4-Dibromo-phenyl)-4-((1R,2S,6R,7S)-dioxo-4-aza-tricyclo[5.2.1.0*2,6*]dec-8-en-4-yl)-benzamide]
10	O=C(NC1CCCc2cccnc21)c1ccc(-n2c(O)c3c(c2O)[C@H]2C=C[C@@H]3C2)cc1 (stereo partly drawn) [4-((1R,2S,6R,7S)-3,5-Dioxo-4-aza-tricyclo[5.2.1.0*2,6*]dec-8-en-4-yl)-N-(5,6,7,8-tetrahydro-quinolin-8-yl)-benzamide]
> 25	O=C(Nc1cccc(F)c1F)c1ccc(-n2c(O)c3c(c2O)[C@H]2C=C[C@@H]3C2)cc1 [N-(2,3-Difluoro-phenyl)-4-((1R,2S,6R,7S)-dioxo-4-aza-tricyclo[5.2.1.0*2,6*]dec-8-en-4-yl)-benzamide]
> 25	O=C(Nc1ccccc1Cl)c1ccc(-n2c(O)c3c(c2O)[C@H]2C=C[C@@H]3C2)cc1 [N-(2-Chloro-phenyl)-4-((1R,2S,6R,7S)-3,5-dioxo-4-aza-tricyclo[5.2.1.0*2,6*]dec-8-en-4-yl)-benzamide]
10	O=C(Nc1ccc(Cl)cc1Cl)c1ccc(-n2c(O)c3c(c2O)[C@H]2C=C[C@@H]3C2)cc1 [N-(2,4-Dichloro-phenyl)-4-((1R,2S,6R,7S)-dioxo-4-aza-tricyclo[5.2.1.0*2,6*]dec-8-en-4-yl)-benzamide]
> 25	O=C(Nc1cc(F)cc(F)c1)c1ccc(-n2c(O)c3c(c2O)[C@H]2C=C[C@@H]3C2)cc1 [N-(3,5-Difluoro-phenyl)-4-((1R,2S,6R,7S)-dioxo-4-aza-tricyclo[5.2.1.0*2,6*]dec-8-en-4-yl)-benzamide]
> 25	O=C(Nc1cccc(F)c1)c1ccc(-n2c(O)c3c(c2O)[C@H]2C=C[C@@H]3C2)cc1 [4-((1R,2S,6R,7S)-3,5-Dioxo-4-aza-tricyclo[5.2.1.0*2,6*]dec-8-en-4-yl)-N-(3-fluoro-phenyl)-benzamide]
> 25	O=C(Nc1cc(F)ccc1F)c1ccc(-n2c(O)c3c(c2O)[C@H]2C=C[C@@H]3C2)cc1 [N-(2,5-Difluoro-phenyl)-4-((1R,2S,6R,7S)-dioxo-4-aza-tricyclo[5.2.1.0*2,6*]dec-8-en-4-yl)-benzamide]
4	O=C(Nc1ccc(F)cc1)c1ccc(-n2c(O)c3c(c2O)[C@H]2C=C[C@@H]3C2)cc1 [4-((1R,2S,6R,7S)-3,5-Dioxo-4-aza-tricyclo[5.2.1.0*2,6*]dec-8-en-4-yl)-N-(4-fluoro-phenyl)-benzamide]
> 25	O=C(Nc1ccccc1)c1ccc(-n2c(O)c3c(c2O)[C@H]2C=C[C@H]3C2)cc1 [4-((1R,2S,6R,7R)-3,5-Dioxo-4-aza-tricyclo[5.2.1.0*2,6*]dec-8-en-4-yl)-N-phenyl-benzamide]
> 25	O=C(Nc1ccccc1Br)c1ccc(-n2c(O)c3c(c2O)[C@H]2C=C[C@@H]3C2)cc1 [N-(2-Bromo-phenyl)-4-((1R,2S,6R,7S)-3,5-dioxo-4-aza-tricyclo[5.2.1.0*2,6*]dec-8-en-4-yl)-benzamide]
> 25	O=C(Nc1ccccc1C(F)(F)F)c1ccc(-n2c(O)c3c(c2O)[C@H]2C=C[C@@H]3C2)cc1 [4-((1R,2S,6R,7S)-3,5-Dioxo-4-aza-tricyclo[5.2.1.0*2,6*]dec-8-en-4-yl)-N-(2-trifluoromethyl-phenyl)-benzamide]
> 25	O=C(Nc1cccc2cccnc12)c1ccc(-n2c(O)c3c(c2O)[C@H]2C=C[C@@H]3C2)c(Cl)c1 [3-Chloro-4-((1R,2S,6R,7S)-3,5-dioxo-4-aza-tricyclo[5.2.1.0*2,6*]dec-8-en-4-yl)-N-quinolin-8-yl-benzamide]
1	COc1ccccc1NC(=O)c1ccc(-n2c(O)c3c(c2O)[C@H]2C=C[C@@H]3C2)cc1 [4-((1R,2S,6R,7S)-3,5-Dioxo-4-aza-tricyclo[5.2.1.0*2,6*]dec-8-en-4-yl)-N-(2-methoxy-phenyl)-benzamide]
